Results as given in US7968720B2, “Secondary amines as renin inhibitors” (Actelion Pharmaceuticals Ltd., priority 2006, dated 2011).
Where a name gives a salt, the structure may show the parent alone.

Target: T1, recombinant human renin (Homo sapiens, UniProt P00797)
T1 sequence (P00797 67-406): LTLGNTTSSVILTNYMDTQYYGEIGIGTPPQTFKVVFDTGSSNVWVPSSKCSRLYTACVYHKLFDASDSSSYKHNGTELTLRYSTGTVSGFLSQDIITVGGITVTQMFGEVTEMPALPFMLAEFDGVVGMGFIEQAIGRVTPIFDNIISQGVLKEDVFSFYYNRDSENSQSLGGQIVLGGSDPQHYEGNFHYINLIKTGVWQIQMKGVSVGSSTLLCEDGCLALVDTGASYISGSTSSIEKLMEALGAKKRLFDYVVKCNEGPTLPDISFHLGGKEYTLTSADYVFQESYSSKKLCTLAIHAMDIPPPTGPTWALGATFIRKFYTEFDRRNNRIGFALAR
Test: Primary renin inhibition assay: IC50 in buffer, 384 well MTP (AngI measured by EIA)
Type: biochemical
Conditions: human tetradecapeptide (1-14) substrate, incubated at 37° C. for 3 h, AngI quantified by EIA
Description: 1. Enzyme Immuno Assay (EIA) to Estimate AngI Accumulation and Renin Inhibition
1.1 Preparation of AngI-BSA Conjugate
1.3 mg (1 μmol) of AngI [1-10 (Bachem, H-1680)] and 17 mg (0.26 μmol) of BSA (Fluka, 05475) were dissolved in 4 mL of 0.1M phosphate buffer, pH 7.4, after which 2 mL of a 1:100 dilution of glutaraldehyde in H2O (Sigma G-5882) was added dropwise. The mixture was incubated overnight at 4° C., then dialyzed against 2 liters of 0.9% NaCl, twice for 4 h at rt, followed by dialysis against 2 liters of PBS 1× overnight at rt. The solution was then filtered with a Syringe filter, 0.45 μm (Nalgene, Cat. No. 194-2545). The conjugate can be stored in polypropylene tubes in 0.05% sodium azide at 4° C. for at least 12 months.
1.2 Preparation of BSA-AngI Coated MTP
Microtiter plates (MPT384, MaxiSorp™, Nunc) were incubated overnight at 4° C. with 80 μl of AngI (1-10)/BSA conjugate, diluted 1:100'000 in PBS 1× in a teflon beaker (exact dilution dependent on batch of conjugate), emptied, filled with 90 μl of blocking solution [0.5% BSA (Sigma A-2153) in PBS 1×, 0.02% NaN3], and incubated for at least 2 h at rt, or overnight at 4° C. 96 well MTP (MaxiSorp™, Nunc) were coated with 200 μl conjugate and blocked with 250 μl blocking solution as above, except that the blocking solution contained 3% BSA. The plates can be stored in blocking solution at 4° C. for 1 month.
1.3 AngI-EIA in 384 Well MTP
The AngI (1-10)/BSA coated MTP were washed 3 times with wash buffer (PBS 1×, 0.01% Tween 20) and filled with 75 μl of primary antibody solution (anti-AngI antiserum, pre-diluted 1:10 in horse serum), diluted to a final concentration of 1:100'000 in assay buffer (PBS 1×, 1 mM EDTA, 0.1% BSA, pH 7.4). 5 μl of the renin reaction (or standards in assay buffer) (see below) were added to the primary antibody solution and the plates were incubated overnight at 4° C. After the incubation the plates were washed 3 times with wash buffer and incubated with secondary antibody [anti-rabbit IgG, linked to horseradish peroxidase (Amersham Bioscience, NA 934V), diluted 1:2'000 in wash buffer] for 2 h at rt. The plates were washed 3 times with wash buffer and then incubated for 1 h at rt with substrate solution [1.89 mM ABTS (2,2′-azino-di-(3-ethyl-benzthiazolinsulfonate)] (Roche Diagnostics, 102 946) and 2.36 mM H2O2 [30%, (Fluka, 95300] in substrate buffer (0.1M sodium acetate, 0.05M sodium dihydrogen phosphate, pH 4.2). The OD of the plate was read at 405 nm in a microplate reader (FLUOStar Optima from BMG). The production of AngI during the renin reaction was quantified by comparing the OD of the sample with the OD of a standard curve of AngI(1-10), measured in parallel.
2. Primary Renin Inhibition Assay: IC50 in Buffer, 384 Well MTP
The renin assay was adapted from an assay described before (Fischli W. et al., Hypertension, 1991, 18:22-31) and consists of two steps: in the first step, recombinant human renin is incubated with its substrate (commercial human tetradecapeptide renin substrate) to create the product Angiotensin I (AngI). In the second step, the accumulated AngI is measured by an immunological assay (enzyme immuno assay, EIA). The detailed description of this assay is found below. The EIA is very sensitive and well suited for renin activity measurements in buffer or in plasma. Due to the low concentration of renin used in this assay (2 fmol per assay tube or 10 pM) it is possible to measure inhibitor affinities in this primary assay down to low pM concentration.
Recombinant human renin (3 pg/μl) in assay buffer (PBS 1×, 1 mM EDTA, 0.1% BSA, pH 7.4), human tetradecapeptide (1-14) substrate (Bachem, M-1120) [5 μM in 10 mM HCl], hydroxyquinoline sulfate (Fluka, 55100) [30 mM in H2O] and assay buffer were premixed at 4° C. at a ratio of 100:30:10:145. 47.5 μl per well of this premix was transferred into polypropylene plates (MTP384, Nunc). […]

SMILES	IC50 [nM]
COCCCc1ccc(Cl)c(CN(C(=O)C2=C(c3ccc(OCCOc4c(Cl)cc(C)cc4Cl)cc3)C[C@@H]3CN(C(=N)N)C[C@H]2N3)C2CC2)c1 [Example 11, (1R,5S)-3-Carbamimidoyl-7-{4-[2-(2,6-dichloro-4-methyl-phenoxy)-ethoxy]-phenyl}-3,9-diaza-bicyclo[3.3.1]non-6-ene-6-carboxylic acid cyclopropyl-[2-chloro-5-(3-methoxy-propyl)-benzyl]-amide Hydrochloride Salt]	0.3
COCCCc1ccc(Cl)c(CN(C(=O)C2=C(c3ccc(OCCOc4c(Cl)cc(C)cc4Cl)nc3)CCNC2)C2CC2)c1 [Example 18, 6-[2-(2,6-Dichloro-4-methyl-phenoxy)-ethoxy]-1′,2′,5′,6′-tetrahydro-[3,4′]bipyridinyl-3′-carboxylic acid [2-chloro-5-(3-methoxy-propyl)-benzyl]-cyclopropyl-amide]	0.5
COCCCc1ccc(Cl)c(CN(C(=O)C2=C(c3ccc(OCc4cc(-c5c(F)ccc(F)c5Cl)no4)cc3)C[C@@H]3CN(C(C)=O)C[C@H]2N3)C2CC2)c1 [Example 50, (1R,5S)-3-Acetyl-7-{4-[3-(2-chloro-3,6-difluoro-phenyl)-isoxazol-5-ylmethoxy]-phenyl}-3,9-diaza-bicyclo[3.3.1]non-6-ene-6-carboxylic acid [2-chloro-5-(3-methoxy-propyl)benzyl]-cyclopropyl-amide]	0.24
O=C([C@H]1CNCC[C@@H]1c1ccc(OCc2cc(-c3c(F)ccc(F)c3Cl)no2)cc1)N(Cc1cc(CNCC(F)F)ccc1Cl)C1CC1 [Example 77, (3R,4S)-4-{4-[3-(2-Chloro-3,6-difluoro-phenyl)isoxazol-5-ylmethoxy]-phenyl}-piperidine-3-carboxylic acid {2-chloro-5-[(2,2-difluoro-ethylamino)-methyl]-benzyl}-cyclopropyl-amide]	0.22
COCCc1ccc(Cl)c(CN(C(=O)[C@@H]2[C@@H](c3ccc(OCCOc4c(Cl)cc(C)cc4Cl)cc3)C[C@@H]3CC[C@H]2N3)C2CC2)c1 [Example 26, (1R,2R,3S,5S)-3-{4-[2-(2,6-Dichloro-4-methyl-phenoxy)-ethoxy]-phenyl}-8-aza-bicyclo[3.2.1]octane-2-carboxylic acid [2-chloro-5-(2-methoxy-ethyl)-benzyl]-cyclopropyl-amide]	0.14
COCCc1ccc(Cl)c(CN(C(=O)[C@@H]2[C@@H](c3ccc(OCc4cc(-c5c(F)ccc(F)c5Cl)no4)cc3)C[C@@H]3CC[C@H]2N3)C2CC2)c1 [Example 60, (1R,2R,3S,5S)-3-{4-[3-(2-Chloro-3,6-difluoro-phenyl)isoxazol-5-ylmethoxy]-phenyl}-8-aza-bicyclo[3.2.1]octane-2-carboxylic acid [2-chloro-5-(2-methoxy-ethyl)benzyl]-cyclopropyl-amide]	0.26
O=C(NCc1ccc(Cl)c(CN(C(=O)[C@H]2CNCC[C@@H]2c2ccc(OCc3cc(-c4c(F)ccc(F)c4Cl)no3)cc2)C2CC2)c1)C1CC1 [Example 83, (3R,4S)-4-{4-[3-(2-Chloro-3,6-difluoro-phenyl)-isoxazol-5-ylmethoxy]-phenyl}-piperidine-3-carboxylic acid {2-chloro-5-[(cyclopropanecarbonyl-amino)-methyl]-benzyl}-cyclopropyl-amide]	0.18
Cc1cc(Cl)c(O[C@@H]2CCN(c3ccc([C@H]4CCNC[C@@H]4C(=O)N(Cc4cc(CNC(=O)CC(F)(F)F)ccc4Cl)C4CC4)cn3)C2)c(Cl)c1 [Example 67, (3′R,4′S)-6-[(R)-3-(2,6-Dichloro-4-methyl-phenoxy)-pyrrolidin-1-yl]-1′,2′,3′,4′,5′,6′-hexahydro-[3,4′]bipyridinyl-3′-carboxylic acid {2-chloro-5-[(3,3,3-trifluoro-propionylamino)-methyl]-benzyl}-cyclopropyl-amide]	0.63
COCCCc1ccc(Cl)c(CN(C(=O)C2=C(c3ccc(OCCOc4c(Cl)cc(C)cc4Cl)cc3)C[C@@H]3CN(C(=O)NC4CC4)C[C@H]2N3)C2CC2)c1 [Example 13, (1R,5S)-7-{4-[2-(2,6-Dichloro-4-methyl-phenoxy)-ethoxy]-phenyl}-3,9-diaza-bicyclo[3.3.1]non-6-ene-3,6-dicarboxylic acid 3-cyclopropylamide 6-{cyclopropyl-[2-chloro-5-(3-methoxy-propyl)-benzyl]-amide}]	0.8
CNC(=O)CCc1ccc(Cl)c(CN(C(=O)[C@H]2CNCC[C@@H]2c2ccc(OCc3cc(-c4c(F)ccc(F)c4Cl)no3)cc2)C2CC2)c1 [Example 102, (3R,4S)-4-{4-[3-(2-Chloro-3,6-difluoro-phenyl)isoxazol-5-ylmethoxy]-phenyl}-piperidine-3-carboxylic Acid [2-chloro-5-(2-methylcarbamoyl-ethyl)benzyl]-cyclopropyl-amide]	0.08
COCCCc1ccc(Cl)c(CN(C(=O)C2=C(c3ccc(CCOc4c(Cl)cc(C)cc4Cl)cc3)C[C@@H]3CNC[C@H]2N3)C2CC2)c1 (racemic) [Example 1, (rac.)-(1R*,5S*)-7-{4-[2-(2,6-Dichloro-4-methyl-phenoxy)-ethyl]-phenyl}-3,9-diaza-bicyclo[3.3.1]non-6-ene-6-carboxylic acid [2-chloro-5-(3-methoxy-propyl)-benzyl]-cyclopropyl-amide]	0.2
CNC(=O)OCCc1ccc(Cl)c(CN(C(=O)[C@H]2CNCC[C@@H]2c2ccc(N3CC[C@@H](Oc4c(Cl)cc(C)cc4Cl)C3)nc2)C2CC2)c1 [Example 110, Methyl-carbamic Acid 2-{4-chloro-3-[(cyclopropyl-{(3′R,4′S)-6-[(R)-3-(2,6-dichloro-4-methyl-phenoxy)-pyrrolidin-1-yl]-1′,2′,3′,4′,5′,6′-hexahydro-[3,4′]bipyridinyl-3′-carbonyl}-amino)-methyl]-phenyl}-ethyl Ester]	0.39
COCCCc1cc(CN(C(=O)C2=C(c3ccc(OCc4cc(-c5c(F)ccc(F)c5Cl)no4)cc3)CCNC2)C2CC2)c(Cl)cn1 [Example 34, 4-{4-[3-(2-Chloro-3,6-difluoro-phenyl)-isoxazol-5-ylmethoxy]-phenyl}-1,2,5,6-tetrahydro-pyridine-3-carboxylic acid [5-chloro-2-(3-methoxy-propyl)-pyridin-4-ylmethyl]-cyclopropyl-amide]	0.1
COCCCc1cc(CN(C(=O)C2=C(c3ccc(OCCOc4c(Cl)cc(C)cc4Cl)nc3)C[C@@H]3CNC[C@H]2N3)C2CC2)c(Cl)cn1 [Example 42, (1R,5S)-7-{6-[2-(2,6-Dichloro-4-methyl-phenoxy)-ethoxy]-pyridin-3-yl}-3,9-diaza-bicyclo[3.3.1]non-6-ene-6-carboxylic acid [5-chloro-2-(3-methoxy-propyl)-pyridin-4-ylmethyl]-cyclopropyl-amide]	0.26
